Source: PubChem BioAssay (NCI)
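Test compounds were applied to cells in 96-well plates for 48 hours at 5 doses. GI50 is the concentration that inhibits growth by half. At the TGI there is no net growth.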

Assays:
Experiment in all cases: DTP human tumour cell line panel, 48 h
K-562 leukemia = system: K-562 leukemia
SK-OV-3 ovarian = system: SK-OV-3 ovarian
HT29 colon = system: HT29 colon
OVCAR-5 ovarian = system: OVCAR-5 ovarian
A549 NSCLC = system: A549 NSCLC
SF-268 CNS = system: SF-268 CNS
HOP-62 NSCLC = system: HOP-62 NSCLC
RXF 393 renal = system: RXF 393 renal
SR leukemia = system: SR leukemia
HL-60(TB) leukemia = system: HL-60(TB) leukemia
IGROV1 ovarian = system: IGROV1 ovarian
A498 renal = system: A498 renal
DU-145 prostate = system: DU-145 prostate
EKVX NSCLC = system: EKVX NSCLC
UACC-257 melanoma = system: UACC-257 melanoma
SW-620 colon = system: SW-620 colon
786-0 renal = system: 786-0 renal
MDA-MB-468 breast = system: MDA-MB-468 breast
SNB-75 CNS = system: SNB-75 CNS
OVCAR-8 ovarian = system: OVCAR-8 ovarian
COLO 205 colon = system: COLO 205 colon
HCT-116 colon = system: HCT-116 colon
MDA-MB-435 = system: MDA-MB-435
HS 578T breast = system: HS 578T breast
HCC-2998 colon = system: HCC-2998 colon
MCF7 breast = system: MCF7 breast
NCI-H522 lung = system: NCI-H522 lung
HOP-92 NSCLC = system: HOP-92 NSCLC
MALME-3M melanoma = system: MALME-3M melanoma
BT-549 breast = system: BT-549 breast
SF-539 CNS = system: SF-539 CNS
KM12 colon = system: KM12 colon
SN12C renal = system: SN12C renal
U251 CNS = system: U251 CNS
NCI-H226 lung = system: NCI-H226 lung
UACC-62 melanoma = system: UACC-62 melanoma
TK-10 renal = system: TK-10 renal
NCI-H460 lung = system: NCI-H460 lung
MDA-MB-231 breast = system: MDA-MB-231 breast
NCI-H23 lung = system: NCI-H23 lung
M14 melanoma = system: M14 melanoma
LOX IMVI melanoma = system: LOX IMVI melanoma
SNB-19 CNS = system: SNB-19 CNS
RPMI-8226 leukemia = system: RPMI-8226 leukemia
SF-295 CNS = system: SF-295 CNS
UO-31 renal = system: UO-31 renal
SK-MEL-28 melanoma = system: SK-MEL-28 melanoma
CCRF-CEM leukemia = system: CCRF-CEM leukemia
SK-MEL-5 melanoma = system: SK-MEL-5 melanoma
PC-3 prostate = system: PC-3 prostate
CAKI-1 renal = system: CAKI-1 renal
OVCAR-3 ovarian = system: OVCAR-3 ovarian
OVCAR-4 ovarian = system: OVCAR-4 ovarian
ACHN renal = system: ACHN renal
HCT-15 colon = system: HCT-15 colon
MOLT-4 leukemia = system: MOLT-4 leukemia

`Clc1cccc(-c2ccc(OCCCN3CCN(c4ccncc4)CC3)cc2)c1` was tested, and the GI50 (K-562 leukemia) was 1630 nM, the TGI (K-562 leukemia) was 9430 nM and the GI50 (SK-OV-3 ovarian) was 2810 nM. It also gave a TGI (SK-OV-3 ovarian) of 10400 nM, a GI50 (HT29 colon) of 1550 nM and a TGI (HT29 colon) of 3180 nM. For the same molecule, the GI50 (OVCAR-5 ovarian) was 1930 nM, the TGI (OVCAR-5 ovarian) was 4350 nM and the GI50 (A549 NSCLC) was 1710 nM. For the same molecule, the TGI (A549 NSCLC) was 3260 nM, the GI50 (SF-268 CNS) was 2080 nM and the TGI (SF-268 CNS) was 4690 nM. It also gave a GI50 (HOP-62 NSCLC) of 1670 nM, a TGI (HOP-62 NSCLC) of 3120 nM and a GI50 (RXF 393 renal) of 1240 nM. The TGI (RXF 393 renal) was 2660 nM, the GI50 (SR leukemia) was 886 nM and the TGI (SR leukemia) was > 100000 nM. It also gave a GI50 (HL-60(TB) leukemia) of 1700 nM, a TGI (HL-60(TB) leukemia) of 4480 nM and a GI50 (IGROV1 ovarian) of 1710 nM. The TGI (IGROV1 ovarian) was 3220 nM, the GI50 (A498 renal) was 5640 nM and the TGI (A498 renal) was 19300 nM. For the same molecule, the GI50 (DU-145 prostate) was 2090 nM, the TGI (DU-145 prostate) was 4790 nM and the GI50 (EKVX NSCLC) was 1850 nM. For the same molecule, the TGI (EKVX NSCLC) was 4650 nM, the GI50 (UACC-257 melanoma) was 2080 nM and the TGI (UACC-257 melanoma) was 4140 nM. For the same molecule, the GI50 (SW-620 colon) was 1700 nM, the TGI (SW-620 colon) was 3270 nM and the GI50 (786-0 renal) was 1700 nM. For the same molecule, the TGI (786-0 renal) was 3070 nM, the GI50 (MDA-MB-468 breast) was 1660 nM and the TGI (MDA-MB-468 breast) was 3260 nM. For the same molecule, the GI50 (SNB-75 CNS) was 1870 nM, the TGI (SNB-75 CNS) was 7270 nM and the GI50 (OVCAR-8 ovarian) was 2340 nM. For the same molecule, the TGI (OVCAR-8 ovarian) was 5810 nM, the GI50 (COLO 205 colon) was 1640 nM and the TGI (COLO 205 colon) was 3080 nM. It also gave a GI50 (HCT-116 colon) of 1500 nM, a TGI (HCT-116 colon) of 3010 nM and a GI50 (MDA-MB-435) of 1700 nM. The TGI (MDA-MB-435) was 3160 nM, the GI50 (HS 578T breast) was 1960 nM and the TGI (HS 578T breast) was 5110 nM. The GI50 (HCC-2998 colon) was 1820 nM, the TGI (HCC-2998 colon) was 3250 nM and the GI50 (MCF7 breast) was 1500 nM. For the same molecule, the TGI (MCF7 breast) was 3040 nM, the GI50 (NCI-H522 lung) was 1870 nM and the TGI (NCI-H522 lung) was 3790 nM. For the same molecule, the GI50 (HOP-92 NSCLC) was 1280 nM, the TGI (HOP-92 NSCLC) was 4280 nM and the GI50 (MALME-3M melanoma) was 1760 nM. The TGI (MALME-3M melanoma) was 3220 nM, the GI50 (BT-549 breast) was 2500 nM and the TGI (BT-549 breast) was 5920 nM. For the same molecule, the GI50 (SF-539 CNS) was 1490 nM, the TGI (SF-539 CNS) was 2850 nM and the GI50 (KM12 colon) was 1770 nM. The TGI (KM12 colon) was 3280 nM, the GI50 (SN12C renal) was 1700 nM and the TGI (SN12C renal) was 3360 nM. The GI50 (U251 CNS) was 1570 nM, the TGI (U251 CNS) was 2990 nM and the GI50 (NCI-H226 lung) was 3510 nM. The TGI (NCI-H226 lung) was 15100 nM, the GI50 (UACC-62 melanoma) was 1730 nM and the TGI (UACC-62 melanoma) was 3170 nM. It also gave a GI50 (TK-10 renal) of 2730 nM, a TGI (TK-10 renal) of 8210 nM and a GI50 (NCI-H460 lung) of 1740 nM. The TGI (NCI-H460 lung) was 3310 nM, the GI50 (MDA-MB-231 breast) was 1570 nM and the TGI (MDA-MB-231 breast) was 2980 nM. The GI50 (NCI-H23 lung) was 2070 nM, the TGI (NCI-H23 lung) was 5090 nM and the GI50 (M14 melanoma) was 1760 nM. For the same molecule, the TGI (M14 melanoma) was 3260 nM, the GI50 (LOX IMVI melanoma) was 1620 nM and the TGI (LOX IMVI melanoma) was 3030 nM. It also gave a GI50 (SNB-19 CNS) of 1940 nM, a TGI (SNB-19 CNS) of 3980 nM and a GI50 (RPMI-8226 leukemia) of 1890 nM. It also gave a TGI (RPMI-8226 leukemia) of 4910 nM, a GI50 (SF-295 CNS) of 1750 nM and a TGI (SF-295 CNS) of 3240 nM. It also gave a GI50 (UO-31 renal) of 1650 nM, a TGI (UO-31 renal) of 3600 nM and a GI50 (SK-MEL-28 melanoma) of 1820 nM. It also gave a TGI (SK-MEL-28 melanoma) of 3520 nM, a GI50 (CCRF-CEM leukemia) of 1490 nM and a TGI (CCRF-CEM leukemia) of 3880 nM. The GI50 (SK-MEL-5 melanoma) was 1650 nM, the TGI (SK-MEL-5 melanoma) was 3040 nM and the GI50 (PC-3 prostate) was 1940 nM. For the same molecule, the TGI (PC-3 prostate) was 6150 nM, the GI50 (CAKI-1 renal) was 1670 nM and the TGI (CAKI-1 renal) was 3330 nM. The GI50 (OVCAR-3 ovarian) was 1790 nM, the TGI (OVCAR-3 ovarian) was 3560 nM and the GI50 (OVCAR-4 ovarian) was 2600 nM. It also gave a TGI (OVCAR-4 ovarian) of 8320 nM, a GI50 (ACHN renal) of 1750 nM and a TGI (ACHN renal) of 3160 nM. For the same molecule, the GI50 (HCT-15 colon) was 1230 nM, the TGI (HCT-15 colon) was 2550 nM and the GI50 (MOLT-4 leukemia) was 2040 nM. For the same molecule, the TGI (MOLT-4 leukemia) was 4710 nM.
